Bridge positions count the residues as written; N and C are the ends. Square brackets hold non-standard residues; d marks the D form. Peptide text beside a SMILES is read from it. * marks the point of attachment. Ileψ(thiazoline)Cys = CC[C@H](C)[C@H](N)C1=N[C@H](C(=O)*)CS1; dOrn = NCCC[C@@H](N)C(=O)O
System: Eimeria maxima and Clostridium perfringens
Format: in vivo, Cobb 500 Chicks (Gallus gallus domesticus)
Settings: infected chickens

SMILES: CC[C@H](C)[C@H](N)C1=N[C@H](C(=O)N[C@@H](CC(C)C)C(=O)N[C@H](CCC(=O)O)C(=O)N[C@H](C(=O)N[C@H]2CCCCNC(=O)[C@H](CC(N)=O)NC(=O)[C@@H](CC(=O)O)NC(=O)[C@H](Cc3cnc[nH]3)NC(=O)[C@@H](Cc3ccccc3)NC(=O)[C@H]([C@@H](C)CC)NC(=O)[C@@H](CCCN)NC2=O)[C@@H](C)CC)CS1 [Treatment Group 5, Bacitracin] ({Ileψ(thiazoline)Cys}-L[dE]IK[dOrn]I[dF]H[dD]N; lactam 4-C)
- Weight Gain Day 0-28: 0.811a kg
- Weight gain over the infected negative control (Day 0-28): significant increase in weight gain
- Mortality (Day 28): 3.1b %
- Lesion Score (0-3) (Day 28, 0 normal, 3 most severe): 0.5b
- Feed Conversion Day 0-28 (kg of food per kg of body weight): 1.585c

From US9932543B2, “Bacterial spore compositions for industrial uses” (priority 2014, dated 2018)
